Each molecule was assayed on S. cerevisiae tim10 strain, luminescence counterscreen (assay: TIM10 strain luminescence inhibitors – S. cerevisiae, uHTS hits, counter-screen for tim23-1 inhibitor project, dose response (AID 504672);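 note: yeast grew roughly 22 hours at 25 °C before the luminescence read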).
Work on c1ccc(Nc2nc(-c3ccccc3)nc3ccccc23)cc1 yielded an IC50 of 6.7 µM.
Cc1csc2nc(O)c(C(=O)NC3CCCCC3)c(=O)n12 showed an IC50 of 9.27 µM.
For Cc1ccc2nc(N3C(=O)CNC3=S)sc2c1, the IC50 was 21.1 µM.
In the case of O=C(Nc1cc(-c2ccccc2)[nH]n1)c1ccccc1, the IC50 is reported as 43.3 µM.
Cc1ccc(S(=O)(=O)N[C@@H](Cc2ccccc2)C(=O)CCl)cc1 showed an IC50 of 0.64 µM.
In the case of COc1ccc(C(=O)N/N=C\c2coc3ccc(Cl)cc3c2=O)cc1, the IC50 is reported as 32.5 µM.
With c1ccc(-c2ncc(-c3ccn[nH]3)s2)cc1 the IC50 was 3.88 µM.
O=C(Oc1cccc2c(O)cccc12)c1ccccc1 gave an IC50 of 4.84 µM.
Work on Cc1ccc(CS(=O)(=O)c2ncc(Cl)c(C(=O)Nc3ccc(OC(F)F)cc3)n2)cc1 yielded an IC50 of 5.88 µM.
O=C(Nc1ccc2c(c1)OCCO2)c1cccc(Cl)c1 was tested, and the IC50 was 21.5 µM.
Work on CNC(=S)N/N=C/c1cc(Br)cc(Br)c1O yielded an IC50 of 8.2 µM.
Molecule C/C(=N\Nc1nc2ccccc2s1)c1cccs1 has an IC50 of 17 µM.
C[C@@]12C(=O)Nc3ccc(Br)cc3C(=O)N1[C@H]1c3ccccc3OC[C@@H]1[C@@H]2c1ccccc1 gave an IC50 of 3.81 µM.
Work on O=C(N/N=C/C(Cl)=C\c1ccccc1)c1cccs1 yielded an IC50 of 59.1 µM.
Work on CC(C)Cn1cnc2c(c(-c3ccccc3)c(-c3ccccc3)n2Cc2ccco2)c1=N yielded an IC50 of 42.3 µM.
With Cc1cc(=O)oc2c1c(C(F)(F)F)nn2-c1ccccc1 the IC50 was 6.41 µM.
Molecule COc1cccc(C(=O)Nc2ccccc2)c1 has an IC50 of 24.4 µM.
Work on O=c1/c(=C/c2cccc3ccccc23)sc2ncnn12 yielded an IC50 of 16.7 µM.
COc1ccccc1C(=O)Nc1nnc(-c2ccc3c(c2)CCCC3)o1 showed an IC50 of 14.7 µM.
O=C1/C(=C/c2cccs2)COc2ccccc21 showed an IC50 of 7.66 µM.
For Cc1ccc2c(c1)C(=O)N1[C@H]3c4ccccc4OC[C@@H]3[C@H](c3ccccc3)[C@]1(C)C(=O)N2, the IC50 was 3.54 µM.
With CCC(C)c1ccc(NC(=O)C2CC3CCC2C3)cc1 (stereo not given) the IC50 was 19.4 µM.
N#C/C(=C/c1ccc(N2CCOCC2)o1)c1nc2ccccc2[nH]1 was tested, and the IC50 was 26.6 µM.
With Cc1cccc(OCCN2C(=O)C(=O)c3cc(C)ccc32)c1 the IC50 was 11.6 µM.
For C=CCNC(=O)c1ccc2c3n(nc2c1)-c1ccc(Cl)cc1CO3, the IC50 was 8.34 µM.
CC(C)OC(=O)c1cccnc1SCc1cc(=O)n2ccccc2n1 showed an IC50 of 42.4 µM.
CC1c2[nH]c3ccccc3c2CCN1C(=O)Nc1ccccc1 (stereo not given) gave an IC50 of 14 µM.
Molecule COc1ccc(C(C[N+](=O)[O-])c2c(-c3ccccc3)cc3ccccn23)cc1 (stereo not given) has an IC50 of 9.28 µM.
Cc1ccc(C(=O)Nc2nc(C(C)(C)C)cs2)s1 was tested, and the IC50 was 20.9 µM.
For Cc1ccc2oc(C(Cl)(Cl)Cl)cc(=O)c2c1, the IC50 was 8.7 µM.
O=C(Nc1ccc(C(=O)N2CCCc3ccccc32)cc1)c1cccs1 gave an IC50 of 15.2 µM.
In the case of C=CCn1c(SCc2cc(=O)n3ccsc3n2)nc2cc(Cl)ccc2c1=O, the IC50 is reported as 9.66 µM.
Molecule COc1ccc(C(=O)c2sc(Nc3ccccc3F)nc2N)cc1 has an IC50 of 16.5 µM.
In the case of CC1(C)CC(n2c(NCCO)nc3c(c2=O)C2(CCCC2)Cc2ccccc2-3)CCO1 (stereo not given), the IC50 is reported as 12.4 µM.
Cc1ccc(S(=O)(=O)Oc2ccccc2C=C2C(=O)N(C)C(=O)N(C)C2=O)cc1 was tested, and the IC50 was 4.57 µM.
With CSC1=N/C(=C\c2ccc(C)cc2)C(=O)S1 the IC50 was 23.8 µM.
Work on COc1ccc(-c2ccc(NC(=O)c3ccco3)cc2)nn1 yielded an IC50 of 10.5 µM.
Cn1c(C=O)c(C#Cc2ccccc2)c2ccccc21 showed an IC50 of 5.53 µM.
Work on CCN(CC)c1ccc(/C=N/NC(=O)c2ccc3c(c2)OCCO3)cc1 yielded an IC50 of 11.5 µM.
With O=C(/C=C\Nc1cccc(F)c1)c1cccs1 the IC50 was 16.6 µM.

From PubChem BioAssay AID504672 (Sanford-Burnham Center for Chemical Genomics, 2011)
